From ChEMBL document CHEMBL1681678, “Discovery of β-aminoacyl containing thiazolidine derivatives as potent and selective dipeptidyl peptidase IV inhibitors” (Bioorg Med Chem Lett, 2011) come the findings set out here.

For data set [1], the target named is CYP3A4 (Homo sapiens, UniProt P08684). The data set can be described thus: Inhibition of CYP3A4 at 10 uM. The class given is ADME.
For data set [2], the target named is T1, CYP1A2 (Homo sapiens, UniProt P05177).
T1 sequence (P05177 whole entry): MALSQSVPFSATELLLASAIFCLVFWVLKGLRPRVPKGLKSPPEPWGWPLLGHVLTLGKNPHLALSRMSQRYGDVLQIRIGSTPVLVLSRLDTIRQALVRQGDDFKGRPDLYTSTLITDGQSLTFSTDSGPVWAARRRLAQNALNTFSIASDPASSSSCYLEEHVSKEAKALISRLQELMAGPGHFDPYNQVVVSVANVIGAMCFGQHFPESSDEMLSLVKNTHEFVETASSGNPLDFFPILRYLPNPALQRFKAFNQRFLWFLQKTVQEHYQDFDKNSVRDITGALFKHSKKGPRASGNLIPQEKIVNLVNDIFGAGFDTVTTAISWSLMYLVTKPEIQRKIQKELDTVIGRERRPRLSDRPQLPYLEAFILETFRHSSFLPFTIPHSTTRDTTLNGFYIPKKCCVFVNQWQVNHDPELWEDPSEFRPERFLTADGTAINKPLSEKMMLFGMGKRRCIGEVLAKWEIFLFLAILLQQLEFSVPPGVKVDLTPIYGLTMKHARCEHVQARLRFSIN
Description: Inhibition of CYP1A2 at 10 uM. In kind it is ADME.

Data set [3] in a line: Metabolic stability in rat liver microsomes assessed as compound remaining after 1 hr. The class given is ADME, Microsome. The conditions noted are these: read-out: Stability. Background: Microsomes from liver hold many membrane-bound enzymes, among them those of drug oxidation.
Data set [4] deals with HepG2. The data set can be described thus: Cytotoxicity against human HepG2 cells at 100 uM. In kind it is cell-based. The conditions noted are these: hepg2, 100 µM.
The nature of data set [5]: Inhibition of elastase.
Data set [6] can be described thus: Chemical stability of the compound in buffer solution assessed as compound remaining at pH 1 to 9 after 24 hrs. In kind it is physicochemical. The settings on record: read-out: Stability.
The target of data set [7] is T2, Prolyl endopeptidase (Rattus norvegicus, UniProt O70196).
T2 sequence (O70196 whole entry): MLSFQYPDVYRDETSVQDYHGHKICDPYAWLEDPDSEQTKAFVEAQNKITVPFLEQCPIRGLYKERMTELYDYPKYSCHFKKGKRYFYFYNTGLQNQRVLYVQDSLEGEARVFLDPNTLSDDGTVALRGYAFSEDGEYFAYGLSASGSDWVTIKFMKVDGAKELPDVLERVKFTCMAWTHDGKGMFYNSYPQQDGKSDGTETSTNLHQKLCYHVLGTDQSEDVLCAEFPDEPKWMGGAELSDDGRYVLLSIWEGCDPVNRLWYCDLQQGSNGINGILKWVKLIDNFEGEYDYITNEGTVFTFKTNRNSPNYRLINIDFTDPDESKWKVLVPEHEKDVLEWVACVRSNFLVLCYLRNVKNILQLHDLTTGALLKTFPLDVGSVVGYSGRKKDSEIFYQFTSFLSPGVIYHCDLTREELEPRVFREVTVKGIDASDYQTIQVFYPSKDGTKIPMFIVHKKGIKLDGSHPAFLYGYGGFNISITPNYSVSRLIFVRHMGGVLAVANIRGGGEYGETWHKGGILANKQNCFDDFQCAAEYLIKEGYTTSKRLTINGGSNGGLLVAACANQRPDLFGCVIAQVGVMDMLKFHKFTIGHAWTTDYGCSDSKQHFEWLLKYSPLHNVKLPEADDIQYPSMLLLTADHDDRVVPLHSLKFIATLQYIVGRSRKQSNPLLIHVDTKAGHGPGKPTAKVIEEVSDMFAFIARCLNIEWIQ
Description: Inhibition of POP in rat brain cortex. The class given is tissue-based.

Data set [8] deals with Voltage-gated inwardly rectifying potassium channel KCNH2 (Homo sapiens, UniProt Q12809). Description: Binding affinity to human ERG.
Data set [9] deals with CYP2C19 (Homo sapiens, UniProt P33261). The data set can be described thus: Inhibition of CYP2C19 at 10 uM. In kind it is ADME.
Data set [10] concerns the target CYP2D6 (Homo sapiens, UniProt P10635). Description: Inhibition of CYP2D6 at 10 uM. In kind it is ADME.
The nature of data set [11]: Cytotoxicity against human WI38 cells at 100 uM. The settings on record: wi-38, 100 µM. In kind it is cell-based.
The target in data set [12] is CYP2C9 (Homo sapiens, UniProt P11712). Description: Inhibition of CYP2C9 at 10 uM. In kind it is ADME.
Data set [13] addresses Dipeptidyl peptidase 2 (Rattus norvegicus, UniProt Q9EPB1). Description: Inhibition of rat DPP2 expressed in african green monkey COS7 cells after 60 mins by fluorescence plate reader. In kind it is cell-based, COS-7.
Data set [14] in a line: Metabolic stability in human liver microsomes assessed as compound remaining after 1 hr. In kind it is ADME, Microsome. The settings on record: read-out: Stability.
Data set [15] in a line: Inhibition of trypsin.
In data set [16] the target is Aminopeptidase N (Homo sapiens, UniProt P15144). Description: Inhibition of APN.
Data set [17] deals with Canis familiaris. Description: Inhibition of DPP4 in Beagle dog plasma at 3 mg/kg, po after 24 hrs. The settings on record: Canis lupus familiaris. In kind it is functional.
The subject of data set [18] is Canis familiaris. Description: Inhibition of DPP4 in Beagle dog plasma at 3 mg/kg, po after 1 hr. In kind it is functional. The settings on record: Canis lupus familiaris.
In data set [19] the test system is Rattus norvegicus. The data set can be described thus: Inhibition of DPP4 in CD rat plasma at 10 mg/kg, po after 8 hrs. The class given is functional.
Data set [20] deals with Rattus norvegicus. The data set can be described thus: Inhibition of DPP4 in CD rat plasma at 10 mg/kg, po after 12 hrs. In kind it is functional.
In data set [21] the test system is Canis familiaris. Description: Inhibition of DPP4 in Beagle dog plasma at 3 mg/kg, po after 4 hrs. In kind it is functional. The settings on record: Canis lupus familiaris.
In data set [22] the test system is Canis familiaris. The data set can be described thus: Inhibition of DPP4 in Beagle dog plasma at 3 mg/kg, po after 12 hrs. The class given is functional. The conditions noted are these: Canis lupus familiaris.
Data set [23] concerns Rattus norvegicus. The data set can be described thus: Inhibition of DPP4 in CD rat plasma at 10 mg/kg, po after 1 hr. In kind it is functional.

CYP2C19, sequence (P33261 whole entry): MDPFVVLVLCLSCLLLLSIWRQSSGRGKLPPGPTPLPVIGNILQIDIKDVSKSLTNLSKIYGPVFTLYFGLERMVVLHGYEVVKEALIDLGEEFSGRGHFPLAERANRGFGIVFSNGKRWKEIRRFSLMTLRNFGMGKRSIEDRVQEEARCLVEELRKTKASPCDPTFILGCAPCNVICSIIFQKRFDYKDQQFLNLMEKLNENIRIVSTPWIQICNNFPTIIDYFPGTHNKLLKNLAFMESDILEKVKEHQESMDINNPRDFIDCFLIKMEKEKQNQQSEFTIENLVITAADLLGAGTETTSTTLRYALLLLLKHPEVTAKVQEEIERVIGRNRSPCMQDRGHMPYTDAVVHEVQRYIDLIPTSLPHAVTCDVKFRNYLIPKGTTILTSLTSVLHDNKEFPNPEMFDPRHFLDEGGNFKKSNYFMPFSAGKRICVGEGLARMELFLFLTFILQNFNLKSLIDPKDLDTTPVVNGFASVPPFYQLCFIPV
Aminopeptidase N, sequence (P15144 whole entry): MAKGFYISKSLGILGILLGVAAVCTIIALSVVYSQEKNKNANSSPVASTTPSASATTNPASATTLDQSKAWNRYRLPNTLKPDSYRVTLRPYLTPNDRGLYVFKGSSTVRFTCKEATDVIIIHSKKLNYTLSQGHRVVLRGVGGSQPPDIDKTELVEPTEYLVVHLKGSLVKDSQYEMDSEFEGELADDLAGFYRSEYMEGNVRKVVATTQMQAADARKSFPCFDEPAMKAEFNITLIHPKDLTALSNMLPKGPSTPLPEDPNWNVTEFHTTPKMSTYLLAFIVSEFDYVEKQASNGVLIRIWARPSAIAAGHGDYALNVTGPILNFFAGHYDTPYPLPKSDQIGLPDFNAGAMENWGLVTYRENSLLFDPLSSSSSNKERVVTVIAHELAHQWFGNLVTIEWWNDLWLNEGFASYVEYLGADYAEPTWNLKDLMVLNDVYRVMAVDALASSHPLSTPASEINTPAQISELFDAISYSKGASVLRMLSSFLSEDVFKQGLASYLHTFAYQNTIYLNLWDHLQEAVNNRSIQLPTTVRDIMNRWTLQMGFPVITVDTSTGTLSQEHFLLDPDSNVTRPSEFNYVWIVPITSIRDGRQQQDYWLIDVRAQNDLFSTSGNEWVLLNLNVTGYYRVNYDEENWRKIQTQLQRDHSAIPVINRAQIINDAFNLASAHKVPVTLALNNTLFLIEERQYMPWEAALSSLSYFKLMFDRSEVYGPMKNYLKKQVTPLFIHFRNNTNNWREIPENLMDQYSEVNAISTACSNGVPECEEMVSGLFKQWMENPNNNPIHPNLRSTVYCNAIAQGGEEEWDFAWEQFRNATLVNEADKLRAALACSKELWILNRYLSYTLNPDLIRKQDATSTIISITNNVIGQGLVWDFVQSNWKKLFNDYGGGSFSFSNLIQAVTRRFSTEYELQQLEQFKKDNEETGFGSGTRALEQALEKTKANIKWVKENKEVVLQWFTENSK
CYP2D6, sequence (P10635 whole entry): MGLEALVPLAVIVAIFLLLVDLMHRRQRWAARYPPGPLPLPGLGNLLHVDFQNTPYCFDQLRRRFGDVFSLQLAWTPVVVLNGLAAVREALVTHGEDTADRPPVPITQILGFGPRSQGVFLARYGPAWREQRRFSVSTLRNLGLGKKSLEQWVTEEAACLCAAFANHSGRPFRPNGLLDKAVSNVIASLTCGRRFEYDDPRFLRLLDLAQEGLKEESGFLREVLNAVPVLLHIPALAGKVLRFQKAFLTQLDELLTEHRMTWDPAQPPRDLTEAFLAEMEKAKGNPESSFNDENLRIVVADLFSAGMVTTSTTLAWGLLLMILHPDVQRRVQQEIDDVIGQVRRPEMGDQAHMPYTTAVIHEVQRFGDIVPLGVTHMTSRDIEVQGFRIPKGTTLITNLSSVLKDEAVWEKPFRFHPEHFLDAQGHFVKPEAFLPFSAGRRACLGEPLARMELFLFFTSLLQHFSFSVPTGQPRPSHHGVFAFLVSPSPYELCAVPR
CYP2C9, sequence (P11712 whole entry): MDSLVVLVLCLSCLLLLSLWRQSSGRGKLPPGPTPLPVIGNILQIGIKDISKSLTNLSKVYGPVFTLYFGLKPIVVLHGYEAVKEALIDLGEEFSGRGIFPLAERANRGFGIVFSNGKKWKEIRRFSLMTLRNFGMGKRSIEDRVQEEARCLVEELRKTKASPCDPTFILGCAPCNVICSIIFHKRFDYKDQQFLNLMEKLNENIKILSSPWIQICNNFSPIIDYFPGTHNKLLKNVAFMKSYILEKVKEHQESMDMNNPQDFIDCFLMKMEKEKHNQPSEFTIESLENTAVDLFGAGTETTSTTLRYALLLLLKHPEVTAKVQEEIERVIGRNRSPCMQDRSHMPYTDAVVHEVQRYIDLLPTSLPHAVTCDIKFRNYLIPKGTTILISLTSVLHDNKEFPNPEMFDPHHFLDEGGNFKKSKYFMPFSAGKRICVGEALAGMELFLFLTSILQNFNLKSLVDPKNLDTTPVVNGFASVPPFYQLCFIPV
Dipeptidyl peptidase 2, sequence (Q9EPB1 whole entry): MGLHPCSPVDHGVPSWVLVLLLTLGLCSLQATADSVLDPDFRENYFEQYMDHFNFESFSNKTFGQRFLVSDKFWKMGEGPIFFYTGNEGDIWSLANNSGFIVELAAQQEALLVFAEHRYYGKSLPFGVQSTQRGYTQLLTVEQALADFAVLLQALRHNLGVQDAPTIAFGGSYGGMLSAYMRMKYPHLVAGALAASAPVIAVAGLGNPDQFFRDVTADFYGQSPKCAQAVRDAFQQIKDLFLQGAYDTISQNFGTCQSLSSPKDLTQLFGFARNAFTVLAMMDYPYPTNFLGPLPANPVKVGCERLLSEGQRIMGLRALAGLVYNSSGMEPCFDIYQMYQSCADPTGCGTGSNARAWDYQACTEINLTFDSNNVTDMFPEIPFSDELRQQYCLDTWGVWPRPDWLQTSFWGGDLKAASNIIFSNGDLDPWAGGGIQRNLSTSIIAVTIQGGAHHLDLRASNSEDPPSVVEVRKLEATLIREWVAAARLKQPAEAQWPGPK
Voltage-gated inwardly rectifying potassium channel KCNH2, sequence (Q12809 whole entry): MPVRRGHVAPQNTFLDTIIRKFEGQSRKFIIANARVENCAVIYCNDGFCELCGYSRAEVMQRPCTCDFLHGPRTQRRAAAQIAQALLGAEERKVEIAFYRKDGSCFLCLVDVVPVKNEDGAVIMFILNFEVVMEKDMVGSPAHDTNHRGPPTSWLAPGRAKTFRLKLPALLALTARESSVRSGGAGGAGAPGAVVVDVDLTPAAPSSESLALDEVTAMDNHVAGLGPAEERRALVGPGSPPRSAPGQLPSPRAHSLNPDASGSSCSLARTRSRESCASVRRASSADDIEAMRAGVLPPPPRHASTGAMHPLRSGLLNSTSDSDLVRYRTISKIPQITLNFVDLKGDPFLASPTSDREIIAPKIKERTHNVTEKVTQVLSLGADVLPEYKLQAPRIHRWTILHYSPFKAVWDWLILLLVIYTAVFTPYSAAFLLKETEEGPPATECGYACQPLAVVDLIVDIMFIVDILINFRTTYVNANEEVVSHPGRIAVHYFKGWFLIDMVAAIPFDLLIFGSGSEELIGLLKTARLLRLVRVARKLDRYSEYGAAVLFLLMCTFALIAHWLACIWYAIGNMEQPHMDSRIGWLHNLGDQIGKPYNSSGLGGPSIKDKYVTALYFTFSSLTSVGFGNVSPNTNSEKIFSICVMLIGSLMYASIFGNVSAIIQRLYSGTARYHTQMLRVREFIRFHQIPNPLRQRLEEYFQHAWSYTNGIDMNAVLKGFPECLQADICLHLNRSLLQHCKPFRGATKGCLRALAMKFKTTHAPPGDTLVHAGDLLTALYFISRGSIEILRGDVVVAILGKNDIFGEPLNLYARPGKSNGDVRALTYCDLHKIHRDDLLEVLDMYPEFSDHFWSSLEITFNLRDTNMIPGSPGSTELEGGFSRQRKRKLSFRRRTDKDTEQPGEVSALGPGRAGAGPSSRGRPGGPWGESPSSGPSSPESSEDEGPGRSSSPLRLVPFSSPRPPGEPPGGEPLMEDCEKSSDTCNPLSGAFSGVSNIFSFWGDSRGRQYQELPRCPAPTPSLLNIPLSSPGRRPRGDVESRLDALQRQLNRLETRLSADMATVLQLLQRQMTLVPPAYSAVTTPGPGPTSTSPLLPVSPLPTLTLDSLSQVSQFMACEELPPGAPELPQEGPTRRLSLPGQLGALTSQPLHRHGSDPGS
CYP3A4, sequence (P08684 whole entry): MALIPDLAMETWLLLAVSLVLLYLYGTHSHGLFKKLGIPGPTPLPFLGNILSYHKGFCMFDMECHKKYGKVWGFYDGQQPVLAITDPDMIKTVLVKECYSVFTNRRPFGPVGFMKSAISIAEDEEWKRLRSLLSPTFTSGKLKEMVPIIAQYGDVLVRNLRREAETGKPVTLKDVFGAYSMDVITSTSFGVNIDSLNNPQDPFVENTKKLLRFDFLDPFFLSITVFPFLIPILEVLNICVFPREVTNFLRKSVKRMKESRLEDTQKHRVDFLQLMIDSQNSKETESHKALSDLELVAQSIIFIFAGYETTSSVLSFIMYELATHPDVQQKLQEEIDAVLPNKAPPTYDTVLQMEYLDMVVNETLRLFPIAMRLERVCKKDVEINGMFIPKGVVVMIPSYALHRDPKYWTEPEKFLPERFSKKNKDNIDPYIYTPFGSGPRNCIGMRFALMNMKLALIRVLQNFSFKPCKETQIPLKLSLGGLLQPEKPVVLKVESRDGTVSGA

As for `CC(C)[C@@H](Nc1ccc(CNC(=O)[C@@H]2SCCN2C(=O)C[C@H](N)Cc2cc(F)c(F)cc2F)cc1)C(=O)O.Cl`, the inhibition (in general, how much of the control response was suppressed) at 10 µM in data set [1] worked out at 3.5%; in data set [2], 2.9%; in data set [9], 46.9%; in [10] it was 12.2%; in [12], 26.8%. Further, the remaining at 1 h in [3] and in data set [14] was over 90% in each case. Besides, the Activity result in data set [4] and in data set [11] was “Non-toxic” throughout. For the same molecule, the concentration for half-maximal inhibition (IC50) in [5], in data set [7], in data set [13], in data set [15] and in [16] was over 100 µM each time. In addition, the remaining at 24 h in [6] was over 90%. Also, in data set [8], the EC50 – broadly, the concentration at which the effect is half-maximal – was determined as 408 µM.

Consider `CCOC(=O)[C@H](Nc1ccc(CNC(=O)[C@@H]2SCCN2C(=O)C[C@H](N)Cc2cc(F)c(F)cc2F)cc1)C(C)C`, for which the inhibition in vivo (commonly the percentage by which the read-out fell short of the control) at 3 mg/kg in data set [17] amounted to 44%; in data set [18], 94%; in [21], 93%; in [22] it was 77%. Also, the inhibition in vivo at 10 mg/kg worked out at 92% in data set [19], 87% in [20] and 95% in data set [23].
